From ChEMBL document CHEMBL5550094, “Design, synthesis and anti-necroptosis activity of fused heterocyclic MLKL inhibitors” (Bioorg Med Chem, 2024)
Calls of active or inactive are those of the source. No cut-off for these calls is given here.

What was measured:
[1] = tested on: HT-29; assay: Anti-necroptosis activity against TNFalpha/Smac mimetic/Z-VAD-fmk-induced human HT-29 cells by CellTiter luminescence cell viability assay; format: functional, cell-based
[2] = tested on: HT-29; assay: Anti-necroptosis activity against TNFalpha/Smac mimetic/Z-VAD-fmk-induced human HT-29 cells measured after 24 hrs by CellTiter-Glo assay; format: functional, cell-based; conditions: HT-29, 24 h
[3] = Anti-necroptosis activity against TNF-alpha induced human Jurkat-FADD-/- cells pretreated for 30 mins followed by TNF-alpha addition and further incubated overnight by CellTiter-Glo 2.0 assay; format: functional, cell-based
[4] = target: T1, Receptor-interacting serine/threonine-protein kinase 3 (Homo sapiens, UniProt Q9Y572); assay: Binding affinity to RIPK3 (unknown origin) assessed as dissociation constant by displacement assay
Target sequence in this assay (Q9Y572 whole entry): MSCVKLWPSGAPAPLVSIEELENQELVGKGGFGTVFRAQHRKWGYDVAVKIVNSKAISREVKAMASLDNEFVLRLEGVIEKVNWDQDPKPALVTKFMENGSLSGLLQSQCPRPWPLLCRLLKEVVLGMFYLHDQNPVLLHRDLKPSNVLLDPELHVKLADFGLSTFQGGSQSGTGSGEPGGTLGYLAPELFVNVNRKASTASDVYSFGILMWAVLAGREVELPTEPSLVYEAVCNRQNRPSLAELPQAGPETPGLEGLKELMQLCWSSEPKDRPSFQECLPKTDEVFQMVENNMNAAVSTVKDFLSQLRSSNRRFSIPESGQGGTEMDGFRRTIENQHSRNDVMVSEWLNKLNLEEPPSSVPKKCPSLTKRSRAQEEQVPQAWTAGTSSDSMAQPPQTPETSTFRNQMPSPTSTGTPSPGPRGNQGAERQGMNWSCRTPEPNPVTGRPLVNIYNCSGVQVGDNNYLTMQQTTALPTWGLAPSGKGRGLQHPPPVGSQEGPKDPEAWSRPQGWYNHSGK

[5] = target: T2, Receptor-interacting serine/threonine-protein kinase 1 (Homo sapiens, UniProt Q13546); assay: Binding affinity to RIPK1 (unknown origin) assessed as dissociation constant by displacement assay
T2 sequence (Q13546 whole entry): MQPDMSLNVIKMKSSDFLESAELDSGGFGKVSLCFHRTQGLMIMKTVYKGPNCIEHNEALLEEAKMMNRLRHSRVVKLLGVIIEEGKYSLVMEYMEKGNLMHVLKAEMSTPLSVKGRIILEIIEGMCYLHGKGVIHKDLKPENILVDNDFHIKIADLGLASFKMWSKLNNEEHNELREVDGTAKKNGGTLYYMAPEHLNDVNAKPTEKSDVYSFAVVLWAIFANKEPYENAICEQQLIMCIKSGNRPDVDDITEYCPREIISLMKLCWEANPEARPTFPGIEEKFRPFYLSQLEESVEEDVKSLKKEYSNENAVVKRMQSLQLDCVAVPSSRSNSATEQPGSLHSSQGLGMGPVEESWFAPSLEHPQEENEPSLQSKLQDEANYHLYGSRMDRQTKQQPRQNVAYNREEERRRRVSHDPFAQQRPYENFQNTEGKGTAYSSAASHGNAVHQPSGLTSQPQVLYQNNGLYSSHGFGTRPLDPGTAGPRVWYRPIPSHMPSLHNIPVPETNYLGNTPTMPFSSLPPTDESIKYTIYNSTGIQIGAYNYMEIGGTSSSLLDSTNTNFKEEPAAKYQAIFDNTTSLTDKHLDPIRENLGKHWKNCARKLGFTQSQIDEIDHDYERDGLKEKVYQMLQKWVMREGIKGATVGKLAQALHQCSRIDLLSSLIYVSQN

[6] = target: T3, Mixed lineage kinase domain-like protein (Homo sapiens) (UniProt Q8NB16); assay: Inhibition of MLKL phosphorylation in TNFalpha/Smac mimetic/Z-VAD-fmk-induced human HT-29 cells at 2 uM measured after 6 hrs by Western blot analysis; format: cell-based
T3 sequence (whole entry): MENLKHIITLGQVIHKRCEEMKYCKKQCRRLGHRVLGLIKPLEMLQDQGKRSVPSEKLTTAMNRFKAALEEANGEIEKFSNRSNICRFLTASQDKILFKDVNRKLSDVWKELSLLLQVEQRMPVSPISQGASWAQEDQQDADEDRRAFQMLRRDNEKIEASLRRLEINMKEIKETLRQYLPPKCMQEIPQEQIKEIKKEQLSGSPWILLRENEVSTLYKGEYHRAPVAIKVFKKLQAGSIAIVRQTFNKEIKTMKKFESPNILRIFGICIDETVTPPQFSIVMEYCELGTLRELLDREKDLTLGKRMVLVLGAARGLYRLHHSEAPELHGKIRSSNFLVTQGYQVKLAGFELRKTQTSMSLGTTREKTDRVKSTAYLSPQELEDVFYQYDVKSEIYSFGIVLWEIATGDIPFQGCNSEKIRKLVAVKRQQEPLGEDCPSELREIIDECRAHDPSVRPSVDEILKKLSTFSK

[7] = target: T1, Receptor-interacting serine/threonine-protein kinase 3; assay: Inhibition of RIPK3 phosphorylation in TNFalpha/Smac mimetic/Z-VAD-fmk-induced human HT-29 cells at 2 uM measured after 6 hrs by Western blot analysis; format: cell-based
Target sequence in this assay (Q9Y572 whole entry, looked up): as the sequence (Q9Y572 whole entry) above

[8] = tested on: L929; assay: Anti-necroptosis activity against TNF-alpha/Z-VAD-FMK induced mouse L929 cells at 20 uM; format: functional, cell-based
[9] = target: T3, Mixed lineage kinase domain-like protein (Homo sapiens); assay: Covalent inhibition of MLKL in TNFalpha/Smac mimetic/Z-VAD-fmk-induced human HT-29 cells assessed as inhibition of necroptosis pretreated for 1 hrs followed by washout and further treated with TNFalpha/Smac mimetic/Z-VAD-fmk and measured after 8 hrs by CellTiter luminescence cell viability assay; format: cell-based
[10] = target: T3, Mixed lineage kinase domain-like protein (Homo sapiens); assay: Covalent inhibition of MLKL in TNFalpha/Smac mimetic/Z-VAD-fmk-induced human HT-29 cells assessed as inhibition of necroptosis pretreated for 3 hrs followed by washout and further treated with TNFalpha/Smac mimetic/Z-VAD-fmk and measured after 8 hrs by CellTiter luminescence cell viability assay; format: cell-based
[11] = target: T3, Mixed lineage kinase domain-like protein (Homo sapiens); assay: Covalent inhibition of MLKL in TNFalpha/Smac mimetic/Z-VAD-fmk-induced human HT-29 cells assessed as inhibition of necroptosis pretreated for 5 mins followed by washout and further treated with TNFalpha/Smac mimetic/Z-VAD-fmk and measured after 8 hrs by CellTiter luminescence cell viability assay; format: cell-based

Row | Compound | EC50 [1] [nM] | also measured
1 | O=C(/C=C/c1ccc([N+](=O)[O-])s1)Nc1ccc(S(=O)(=O)Nc2nc3ccc(Br)cc3s2)cc1 | > 20000 | 
2 | O=C(/C=C/c1ccc([N+](=O)[O-])s1)Nc1ccc(S(=O)(=O)Nc2nc3ccc(Cl)cc3s2)cc1 | 13800 | 
3 | O=C(/C=C/c1ccc([N+](=O)[O-])s1)Nc1ccc(S(=O)(=O)Nc2nc3cc(F)ccc3s2)cc1 | 6750 | 
4 | Cc1ccc2sc(NS(=O)(=O)c3ccc(NC(=O)/C=C/c4ccc([N+](=O)[O-])s4)cc3)nc2c1 | 2580 | 
5 | O=C(/C=C/c1ccc([N+](=O)[O-])s1)Nc1ccc(S(=O)(=O)Nc2cncc3ccccc23)cc1 | 427 | 
6 | COc1nccnc1NS(=O)(=O)c1ccc(NC(=O)CCc2cccs2)cc1 |  | EC50 [2]: > 20000 nM
7 | Cc1ccc2nc(NS(=O)(=O)c3ccc(NC(=O)/C=C/c4ccc([N+](=O)[O-])s4)cc3)sc2c1 | 2910 | 
8 | O=C(/C=C/c1ccc([N+](=O)[O-])s1)Nc1ccc(S(=O)(=O)Nc2nc3ccccc3o2)cc1 | 1570 | 
9 | O=C(/C=C/c1ccc([N+](=O)[O-])s1)Nc1ccc(S(=O)(=O)Nc2nccc3ccccc23)cc1 | 734 | 
10 | O=C(/C=C/c1ccc([N+](=O)[O-])s1)Nc1ccc(S(=O)(=O)Nc2cnc3ccccc3n2)cc1 | 384 | 
11 | O=C(/C=C/c1ccc([N+](=O)[O-])s1)Nc1ccc(S(=O)(=O)Nc2ccnc3ccccc23)cc1 | 579 | 
12 | O=C(/C=C/c1ccc([N+](=O)[O-])s1)Nc1ccc(S(=O)(=O)Nc2nc3cc(Cl)ccc3s2)cc1 | 16200 | 
13 | O=C(/C=C/c1ccc([N+](=O)[O-])s1)Nc1ccc(S(=O)(=O)Nc2cc3ccccc3cn2)cc1 | 621 | 
14 | O=C(/C=C/c1ccc([N+](=O)[O-])s1)Nc1ccc(S(=O)(=O)Nc2cnc3ccccc3c2)cc1 | 406 | 
15 | O=C(/C=C/c1ccc([N+](=O)[O-])s1)Nc1ccc(S(=O)(=O)Nc2ccc3nccnc3c2)cc1 | 480 | 
16 | COc1nccnc1NS(=O)(=O)c1ccc(NC(=O)/C=C/c2cccs2)cc1 |  | EC50 [2]: > 20000 nM
17 | O=C(/C=C/c1ccc([N+](=O)[O-])s1)Nc1ccc(S(=O)(=O)Nc2nc3ccc(OC(F)(F)F)cc3s2)cc1 | > 20000 | 
18 | Nc1nccnc1C(=O)O[C@@H](C(=O)Nc1ccc(F)cc1)c1ccccc1 |  | IC50 [3]: > 40000 nM; Kd [4]: > 30000 nM; Kd [5]: > 30000 nM
19 | O=C(/C=C/c1ccc([N+](=O)[O-])s1)Nc1ccc(S(=O)(=O)Nc2nc3ccccc3s2)cc1 | 1510 | 

Row | Compound | EC50 [1] [nM] | also measured
20 | O=C(/C=C/c1ccc([N+](=O)[O-])s1)Nc1ccc(S(=O)(=O)Nc2nc3ccc(F)cc3s2)cc1 | 5150 | 
21 | O=C(/C=C/c1ccc([N+](=O)[O-])s1)Nc1ccc(S(=O)(=O)Nc2ccc3ccccc3n2)cc1 | 329 | 
22 | O=C(/C=C/c1ccc([N+](=O)[O-])s1)Nc1ccc(S(=O)(=O)Nc2nc3c(F)cccc3s2)cc1 | 7460 | 
23 | COc1ccc2nc(NS(=O)(=O)c3ccc(NC(=O)/C=C/c4ccc([N+](=O)[O-])s4)cc3)sc2c1 | 5080 | 
24 | O=C(/C=C/c1ccc([N+](=O)[O-])s1)Nc1ccc(S(=O)(=O)Nc2nc3c(Br)cccc3s2)cc1 | 7350 | 
25 | COc1nccnc1NS(=O)(=O)c1ccc(NC(=O)/C=C/c2ccc([N+](=O)[O-])s2)cc1 |  | inhibition [6]: inactive; inhibition [7]: inactive; EC50 [2]: 447 nM
26 | C[C@@H](Oc1cc(-c2cnn(C3CCNCC3)c2)cnc1N)c1c(Cl)ccc(F)c1Cl [CRIZOTINIB] |  | IC50 [3]: > 40000 nM
27 | O=C(/C=C/c1ccc([N+](=O)[O-])s1)Nc1ccc(S(=O)(=O)Nc2nc3c(Cl)cccc3s2)cc1 | 6230 | 
28 | COc1ccc2sc(NS(=O)(=O)c3ccc(NC(=O)/C=C/c4ccc([N+](=O)[O-])s4)cc3)nc2c1 | 7030 | 
29 | Cc1cccc2sc(NS(=O)(=O)c3ccc(NC(=O)/C=C/c4ccc([N+](=O)[O-])s4)cc3)nc12 | 2750 | 
30 | O=C(/C=C/c1ccc([N+](=O)[O-])s1)Nc1ccc(S(=O)(=O)Nc2ncc3ccccc3n2)cc1 | 148 | Activity [8]: inactive; inhibition [6]: inactive; inhibition [9]: Active; inhibition [7]: inactive; inhibition [10]: Active; inhibition [11]: inactive
31 | COc1cccc2sc(NS(=O)(=O)c3ccc(NC(=O)/C=C/c4ccc([N+](=O)[O-])s4)cc3)nc12 | 596 | Activity [8]: inactive; inhibition [6]: inactive; inhibition [9]: Active; inhibition [7]: inactive; inhibition [10]: Active; inhibition [11]: inactive
32 | O=C(/C=C/c1ccc([N+](=O)[O-])s1)Nc1ccc(S(=O)(=O)Nc2nc3cc(Br)ccc3s2)cc1 | > 20000 | 
33 | Cn1c(NS(=O)(=O)c2ccc(NC(=O)/C=C/c3ccc([N+](=O)[O-])s3)cc2)nc2ccccc21 | 478 | 
34 | O=C(/C=C/c1ccc([N+](=O)[O-])s1)Nc1ccc(S(=O)(=O)Nc2nc3ccc(C(F)(F)F)cc3s2)cc1 | > 20000 | 
35 | O=C(/C=C/c1ccc([N+](=O)[O-])s1)Nc1ccc(S(=O)(=O)Nc2ncnc3ccccc23)cc1 | 526 | 
36 | COc1nccnc1NS(=O)(=O)c1ccc(NC(=O)CCc2ccc([N+](=O)[O-])s2)cc1 |  | EC50 [2]: > 20000 nM
37 | COc1nccnc1NS(=O)(=O)c1ccc(NC(=O)/C=C/c2ccc([N+](=O)[O-])o2)cc1 | 6410 | 
